Consider three compounds from US20250327133A1, “USE OF SRE-PTPRZ1 INHIBITOR IN PREPARATION OF DRUG FOR TREATING SQUAMOUS CELL CARCINOMA” (WEST CHINA HOSPITAL, SICHUAN UNIVERSITY, priority 2022, published 2025).

The structures appear in SMILES notation.

The test system of one series is H520 cells. Kind of series: CCK8 cell survival, MY-10, H520. The note with it: 72 hours. The class given is cell-based, human. How it is done: (§1) The CCK8 method was used to detect the effect of the PTPRZ1 inhibitor MY-10 on cell proliferation. 3 human Lung-LUSC cells and one PTPRZ1 high expression cell line U251 (high expression of PTPRZ1 gene in glioma cells) were used in this experiment for detection. Each cell line was inoculated into a 96-well plate at a density of 5000 cells/well, cultured for 24 hours, and then 100 μL of MY-10 working solution was added at final concentrations of 0 μM, 1 μM, 2 μM, […], 6 μM, and […] to the test wells, while 100 μL of medium was added to the blank control well. After 72 hours of drug treatment, 20 μL of CCK8 was added in proportion, followed by incubating for 1 h. The absorbance value was measured at 450 nm, and the survival rates of MY-10 against different Lung-LUSC cells were plotted.

The next series deals with H1703. Briefly: CCK8 cell survival, MY-10, H1703. It counts as cell-based, human. The note with it: 0-8 μM, 72 hours. How it is done:
as §1

Series [1] concerns PTPRZ1 glioma cell line (U251). Kind of series: CCK8 cell survival, MY-10, U251. The class given is cell-based. The note with it: 0-8 μM, 72 hours. How it is done:
as §1

The subject of another series is LK-2. Briefly: CCK8 cell survival, MY-10, LK-2. Conditions: 0-8 μM, 72 hours. It counts as cell-based, human. How it is done:
as §1

A further series has as its system glioma cell line U251. Briefly: CCK8 cell growth inhibition by NAZ2329, U251. It counts as cell-based. The note with it: 5-70 μM, 72 hours. How it is done:
(§2) The CCK8 method was used to detect the inhibition rate of PTPRZ1 inhibitor NAZ2329 on cell growth. 5 strains of human Lung-LUSC cells, one strain of human normal lung epithelial cell BEAS-2B, and one strain of highly expressed PTPRZ1 cell line U251 (High expression of PTPRZ1 gene in glioma cells) were used in this experiment for detection. Each cell line was inoculated into a 96-well plate at a density of 8000 cells/well, and cultured for 18 h. Then, 100 μL of NAZ2329 solution was added to the test wells at final concentrations of 5 μM, 10 μM, 20 μM, 30 μM, 40 μM, 50 μM, 60 μM, and 70 μM, while 100 μL of medium was added to the blank control well. After 72 hours of drug treatment, 20 μL of CCK8 was added in proportion and incubated for 2 h. The absorbance value was measured at 450 nm and the inhibition rate curve was plotted.

Another series concerns human Lung-LUSC cells. Kind of series: CCK8 cell growth inhibition by NAZ2329, Lung-LUSC cells. It counts as cell-based. Conditions: 5-70 μM, 72 hours. How it is done: as §2
Series [2] has as its system human normal lung epithelial cell BEAS-2B. Kind of series: CCK8 cell growth inhibition by NAZ2329, BEAS-2B. The class given is cell-based. Conditions: 5-70 μM, 72 hours. How it is done: as §2
In series [3] the test system is human Lung-LUSC cell lines. Kind of series: CCK8 cell proliferation, MY33-3, Lung-LUSC cell lines. The note with it: 7 human Lung LUSC cell lines; 72 hours. The class given is cell-based. How it is done: (§3) The CCK8 method was used to detect the effect of PTPRZ1 inhibitor MY33-3 on cell proliferation. 7 strains of human Lung-LUSC cells, one strain of human lung adenocarcinoma cell, one strain of human normal lung epithelial cell BEAS-2B, and one strain of PTPRZ1 high expressing cell line U251 (high expression of PTPRZ1 gene in glioma cells) were used in this experiment for detection. Each cell line was inoculated into a 96-well plate at a density of 6000 cells/well, cultured for 24 hours, and then 100 μL of MY33-3 working solution was added to the test wells at final concentrations of 0 μM, 1 μM, 2 μM, 4 μM, 8 μM, 16 μM, 32 μM, and 64 μM, while 100 μL of medium was added to the blank control well. After 72 hours of drug treatment, 20 μL of CCK8 was added in proportion and incubated for 1 hour. The absorbance value was measured at 450 nm, and the IC50 values of MY33-3 against different cells were plotted.

In series [4] the test system is PTPRZ1 glioma cell line U251. Kind of series: CCK8 cell proliferation, MY33-3, U251. The class given is cell-based. Conditions: Homo sapiens, U-251, 72 hours. How it is done:
as §3

The subject of series [5] is human Lung-LUSC (H520) cells. Briefly: Subcutaneous tumor formation in nude mice (H520). Conditions: for tumor size compared with the model group / tumor volume compared with the model group: after 21 days of administration. The class given is in vivo, BALB/c-nu mice. How it is done: At the animal level, the method of subcutaneous tumor formation in nude mice was used to verify the therapeutic effect of the inhibitor MY33-3 on the tumor formation of human Lung-LUSC (H520) cells. Firstly, 30 of 4W BALB/c-nu mice were purchased from GemPharmatech and acclimated for 3 days. Then, 150 μL of pre-prepared H520 cells was injected subcutaneously into the right forelimb of nude mice at 8×10^6 cells/mouse. After 7 days, the tumor growth of each nude mouse was observed, and the mice were grouped and received drugs when the tumor grew to 100 mm^3. Mice were divided into the blank group, the model group, the low-dose group, and the high-dose group, with 7 mice in each group. Meanwhile, the inhibitor MY33-3 was administered at doses of 20 mg/kg (low-dose group) and 100 mg/kg (high-dose group) once every 2 days, and the changes in tumor growth were recorded using a vernier caliper. Then, after 21 days of administration, samples were collected, and the therapeutic effect of the inhibitor MY33-3 on human Lung-LUSC cells was evaluated using indicators such as tumor volume, tumor weight, and nude mouse weight.

For series [6], the system named is human normal lung epithelial cell line BEAS-2B. Briefly: CCK8 cell proliferation, MY33-3, BEAS-2B. The class given is cell-based. Conditions: 72 hours. How it is done: as §3
Series [7] deals with human Lung LUAD cell line. Kind of series: CCK8 cell proliferation, MY33-3, lung adenocarcinoma cell line. The note with it: one human Lung LUAD cell line; 72 hours. The class given is cell-based. How it is done:
as §3

Consider `FC(F)(F)Sc1ccc(CCCOc2ccc(SC(F)(F)F)cc2)cc1` [MY-10], for which the “inhibitory effect with increasing concentrations” value in the series on H520 cells (H520, 0-8 μM) is listed as “significant inhibitory effects”; in the series with H1703, “significant inhibitory effects”; in series [1], “significant inhibitory effects”; with LK-2 it was “significant inhibitory effects”. Also, the IC50 in the series on H520 cells (Homo sapiens, NCI-H520, H520 cells, read-out: IC50 (survival rate)) is ~4 µM.
As for `CCOc1ccc(C(F)(F)F)cc1CSc1ccsc1C(=O)NS(=O)(=O)c1ccccc1` [NAZ2329], the “cell growth with increasing treatment concentration” value (in the series on glioma cell line U251; with human Lung-LUSC cells (Lung-LUSC cells); in series [2]) was “inhibited” each time. Moreover, the “growth inhibition rate on cell growth” value in the series with human Lung-LUSC cells (4 strains of Lung-LUSC cells, compared with BEAS-2B and U251) was “significantly higher than that of human normal lung epithelial cells BEAS-2B and glioma cell line U251”.
`FC(F)(F)Sc1ccc(CNCc2ccc(SC(F)(F)F)cc2)cc1` [MY33-3]: the concentration for half-maximal inhibition (IC50) is < 16 µM in [3], 33 µM in series [4], 28 µM in [6] and 25 µM in [7]. The “inhibitory effect on tumorigenicity of H520 cells” value in series [5] (dose of 20 mg/kg) is reported as “good inhibitory effect”. Also, the “weight of nude mice versus model group” value in [5] (high-dose group 100 mg/kg) and in [5] (low-dose group 20 mg/kg) was “no significant difference” each time. Besides, the “tumor size compared with the model group” value in series [5] (high-dose group 100 mg/kg once every 2 days) and in [5] (low-dose group 20 mg/kg once every 2 days) was “significantly decreased” throughout. The “tumor volume compared with the model group” value in series [5] (high-dose group 100 mg/kg) and in [5] (low-dose group 20 mg/kg) was “more significantly decreased” in each case.

By IC50 is commonly meant the concentration that gives 50% inhibition.
